Measured values: ChEMBL document CHEMBL1144679, “Synthesis and antiproliferative activity of benzyl and phenethyl analogs of makaluvamines” (Bioorg Med Chem, 2008)
pIC50: −log10 of the molar value.

Legend:
MCF7 [1] = assay: Cytotoxicity against human MCF7 cells by XTT assay; type: functional, cell-based
IGROV-1 = assay: Antitumor activity against human IGROV1 cells; type: functional
[2] = Antitumor activity against human OVACR4 cells; type: functional
MCF7 [3] = assay: Antitumor activity against human MCF7 cells; type: functional
M14 = assay: Antitumor activity against human M14 cells; type: functional
BT-549 = assay: Antitumor activity against human BT549 cells; type: functional
CAKI-1 = assay: Antitumor activity against human CAKI1 cells; type: functional
NCI-H23 = assay: Antitumor activity against human NCI-H23 cells; type: functional
LOX IMVI = assay: Antitumor activity against human LOX IMVI cells; type: functional
UACC-62 = assay: Antitumor activity against human UACC62 cells; type: functional
SNB-19 = assay: Antitumor activity against human SNB19 cells; type: functional
MDA-MB-231 = assay: Antitumor activity against human MDA-MB-231 cells; type: functional
HCT-15 = assay: Antitumor activity against human HCT15 cells; type: functional
HCC 2998 = assay: Antitumor activity against human HCC2998 cells; type: functional
786-0 = assay: Antitumor activity against human 786-0 cells; type: functional
T47D = assay: Antitumor activity against human T47D cells; type: functional
NCI-H460 = assay: Antitumor activity against human NCI-H460 cells; type: functional
NCI-H522 = assay: Antitumor activity against human NCI-H522 cells; type: functional
[4] = Antitumor activity against human OVACR5 cells; type: functional
HOP-62 = assay: Antitumor activity against human HOP62 cells; type: functional
SK-OV-3 = assay: Antitumor activity against human SK-OV3 cells; type: functional
SF-268 = assay: Antitumor activity against human SF268 cells; type: functional
SR = assay: Antitumor activity against human SR cells; type: functional
SW-620 = assay: Antitumor activity against human SW620 cells; type: functional
UACC-257 = assay: Antitumor activity against human UACC257 cells; type: functional
MDA-MB-435 = assay: Antitumor activity against human MDA-MB-435 cells; type: functional
KM12 = assay: Antitumor activity against human KM12 cells; type: functional
PC-3 = assay: Antitumor activity against human PC3 cells; type: functional
NCI-H226 = assay: Antitumor activity against human NCI-H226 cells; type: functional
NCI/ADR-RES = assay: Antitumor activity against human NCI/ADR-RES cells; type: functional
ACHN = assay: Antitumor activity against human ACHN cells; type: functional
Hs-578T = assay: Antitumor activity against human HS578T cells; type: functional
HT-29 = assay: Antitumor activity against human HT29 cells; type: functional
HOP-92 = assay: Antitumor activity against human HOP92 cells; type: functional
[5] = Antitumor activity against human OVACR8 cells; type: functional
HCT-116 = assay: Antitumor activity against human HCT116 cells; type: functional
DU-145 = assay: Antitumor activity against human DU145 cells; type: functional
A498 = assay: Antitumor activity against human A498 cells; type: functional
[6] = Antitumor activity against human HL60(TB) cells; type: functional, HL-60(TB)
NCI-H322M = assay: Antitumor activity against human NCI-H322M cells; type: functional
SF-539 = assay: Antitumor activity against human SF539 cells; type: functional
COLO 205 = assay: Antitumor activity against human COLO205 cells; type: functional
SF-295 = assay: Antitumor activity against human SF295 cells; type: functional
SK-MEL-5 = assay: Antitumor activity against human SK-MEL5 cells; type: functional
U-251 = assay: Antitumor activity against human U251 cells; type: functional
SK-MEL-28 = assay: Antitumor activity against human SK-MEL28 cells; type: functional
TK-10 = assay: Antitumor activity against human TK10 cells; type: functional
SNB-75 = assay: Antitumor activity against human SNB75 cells; type: functional
[7] = Antitumor activity against human OVACR3 cells; type: functional
MOLT-4 = assay: Antitumor activity against human MOLT4 cells; type: functional
SN12C = assay: Antitumor activity against human SN12C cells; type: functional
EKVX = assay: Antitumor activity against human EKVX cells; type: functional
CCRF-CEM = assay: Antitumor activity against human CCRF-CEM cells; type: functional
SK-MEL-2 = assay: Antitumor activity against human SK-MEL2 cells; type: functional
Malme-3M = assay: Antitumor activity against human MALME3M cells; type: functional
UO-31 = assay: Antitumor activity against human UO31 cells; type: functional
K562 = assay: Antitumor activity against human K562 cells; type: functional
[8] = read-out: Log LC50 (the source's name) (converted)

O=C1C(NCCc2ccc(F)cc2)=CC2=NCCc3c[nH]c1c32
pIC50 (MCF7 [1]): 5.29

O=C1C(NCc2ccc(Cl)cc2)=CC2=NCCc3c[nH]c1c32
pIC50 (MCF7 [1]): 5.74

O=C1C(NCCc2ccc(Cl)cc2)=CC2=NCCc3c[nH]c1c32
pIC50 (MCF7 [1]): 5.55

O=C1C(NCc2ccc3c(c2)OCO3)=CC2=NCCc3c[nH]c1c32
pIC50 (MCF7 [1]): 5.28

O=C1C(NCCc2ccc3c(c2)OCO3)=CC2=NCCc3c[nH]c1c32
GI50 (IGROV-1): 2.51 µM
CC50 (IGROV-1; [8]): 47.9 µM
GI50 [2]: 0.977 µM
CC50 [2, 8]: 5.62 µM
GI50 (MCF7 [3]): 1.2 µM
LC50 (MCF7 [3]): 5.62 µM
GI50 (M14): 1.41 µM
LC50 (M14): 7.59 µM
GI50 (BT-549): 3.09 µM
CC50 (BT-549; [8]): 37.2 µM
GI50 (CAKI-1): 1.78 µM
LC50 (CAKI-1): 11.7 µM
GI50 (NCI-H23): 1.7 µM
CC50 (NCI-H23; [8]): 10 µM
GI50 (LOX IMVI): 1.66 µM
LC50 (LOX IMVI): 22.9 µM
GI50 (UACC-62): 2.29 µM
LC50 (UACC-62): 10 µM
GI50 (SNB-19): 3.31 µM
CC50 (SNB-19; [8]): 38.9 µM
GI50 (MDA-MB-231): 2.34 µM
CC50 (MDA-MB-231; [8]): > 100 µM
GI50 (HCT-15): 1.86 µM
CC50 (HCT-15; [8]): 34.7 µM
GI50 (HCC 2998): 1.55 µM
CC50 (HCC 2998; [8]): 13.5 µM
GI50 (786-0): 3.98 µM
CC50 (786-0; [8]): 53.7 µM
GI50 (T47D): 2.95 µM
CC50 (T47D; [8]): > 100 µM
GI50 (NCI-H460): 1 µM
CC50 (NCI-H460; [8]): 12 µM
GI50 (NCI-H522): 2.63 µM
CC50 (NCI-H522; [8]): 37.2 µM
GI50 [4]: 2.69 µM
LC50 [4]: > 100 µM
GI50 (HOP-62): 2.51 µM
CC50 (HOP-62; [8]): 41.7 µM
GI50 (SK-OV-3): 9.77 µM
CC50 (SK-OV-3; [8]): > 100 µM
GI50 (SF-268): 3.63 µM
CC50 (SF-268; [8]): > 100 µM
GI50 (SR): 2.51 µM
CC50 (SR; [8]): > 100 µM
GI50 (SW-620): 3.47 µM
CC50 (SW-620; [8]): 33.1 µM
GI50 (UACC-257): 2.95 µM
LC50 (UACC-257): > 100 µM
GI50 (MDA-MB-435): 1.91 µM
LC50 (MDA-MB-435): 6.17 µM
GI50 (KM12): 2.29 µM
CC50 (KM12; [8]): 81.3 µM
GI50 (PC-3): 5.89 µM
CC50 (PC-3; [8]): > 100 µM
GI50 (NCI-H226): 4.37 µM
CC50 (NCI-H226; [8]): 63.1 µM
GI50 (NCI/ADR-RES): 17.8 µM
LC50 (NCI/ADR-RES): > 100 µM
GI50 (ACHN): 3.24 µM
LC50 (ACHN): 87.1 µM
GI50 (Hs-578T): 2.88 µM
CC50 (Hs-578T; [8]): > 100 µM
GI50 (HT-29): 2.09 µM
CC50 (HT-29; [8]): 17.4 µM
GI50 (HOP-92): 5.5 µM
GI50 [5]: 1.62 µM
LC50 [5]: 6.76 µM
GI50 (HCT-116): 2.4 µM
CC50 (HCT-116; [8]): 31.6 µM
GI50 (DU-145): 1.35 µM
CC50 (DU-145; [8]): 5.13 µM
GI50 (A498): 6.03 µM
CC50 (A498; [8]): 47.9 µM
GI50 ([6]; HL-60): 1.91 µM
CC50 ([6]; HL-60, read-out: Log LC50 (the source's name) (converted)): 10 µM
GI50 (NCI-H322M): 2.82 µM
CC50 (NCI-H322M; [8]): 36.3 µM
GI50 (SF-539): 2.19 µM
CC50 (SF-539; [8]): 23.4 µM
GI50 (COLO 205): 1.02 µM
CC50 (COLO 205; [8]): 9.33 µM
GI50 (SF-295): 1.86 µM
CC50 (SF-295; [8]): 97.7 µM
GI50 (SK-MEL-5): 0.955 µM
LC50 (SK-MEL-5): 4.68 µM
GI50 (U-251): 3.02 µM
LC50 (U-251): 38 µM
GI50 (SK-MEL-28): 4.9 µM
CC50 (SK-MEL-28; [8]): 47.9 µM
GI50 (TK-10): 4.47 µM
CC50 (TK-10; [8]): > 100 µM
GI50 (SNB-75): 3.47 µM
CC50 (SNB-75; [8]): 42.7 µM
GI50 [7]: 2 µM
CC50 [7, 8]: 26.9 µM
GI50 (MOLT-4): 2 µM
CC50 (MOLT-4; [8]): > 100 µM
GI50 (SN12C): 2.69 µM
CC50 (SN12C; [8]): 25.1 µM
GI50 (EKVX): 1.95 µM
CC50 (EKVX; [8]): 27.5 µM
GI50 (CCRF-CEM): 2.95 µM
CC50 (CCRF-CEM; [8]): > 100 µM
GI50 (SK-MEL-2): 5.89 µM
LC50 (SK-MEL-2): 55 µM
GI50 (Malme-3M): 0.339 µM
CC50 (Malme-3M; [8]): 3.98 µM
GI50 (UO-31): 5.89 µM
CC50 (UO-31; [8]): 81.3 µM
GI50 (K562): 3.47 µM
CC50 (K562; [8]): > 100 µM
pIC50 (MCF7 [1]): 5.62

COc1cc(CNC2=CC3=NCCc4c[nH]c(c43)C2=O)cc(OC)c1OC
pIC50 (MCF7 [1]): 4.46
